According to ChEMBL document CHEMBL4321850, “Targeting Aryl hydrocarbon receptor for next-generation immunotherapies: Selective modulators (SAhRMs) versus rapidly metabolized ligands (RMAhRLs)” (Eur J Med Chem, 2020):
One block for each compound: values may come before it.

Columns and labels:
[1] = target: T1, Aryl hydrocarbon receptor (Homo sapiens, UniProt P35869); test: Displacement of [3H] 3-MC from AhR (unknown origin)
T1 sequence (P35869 whole entry): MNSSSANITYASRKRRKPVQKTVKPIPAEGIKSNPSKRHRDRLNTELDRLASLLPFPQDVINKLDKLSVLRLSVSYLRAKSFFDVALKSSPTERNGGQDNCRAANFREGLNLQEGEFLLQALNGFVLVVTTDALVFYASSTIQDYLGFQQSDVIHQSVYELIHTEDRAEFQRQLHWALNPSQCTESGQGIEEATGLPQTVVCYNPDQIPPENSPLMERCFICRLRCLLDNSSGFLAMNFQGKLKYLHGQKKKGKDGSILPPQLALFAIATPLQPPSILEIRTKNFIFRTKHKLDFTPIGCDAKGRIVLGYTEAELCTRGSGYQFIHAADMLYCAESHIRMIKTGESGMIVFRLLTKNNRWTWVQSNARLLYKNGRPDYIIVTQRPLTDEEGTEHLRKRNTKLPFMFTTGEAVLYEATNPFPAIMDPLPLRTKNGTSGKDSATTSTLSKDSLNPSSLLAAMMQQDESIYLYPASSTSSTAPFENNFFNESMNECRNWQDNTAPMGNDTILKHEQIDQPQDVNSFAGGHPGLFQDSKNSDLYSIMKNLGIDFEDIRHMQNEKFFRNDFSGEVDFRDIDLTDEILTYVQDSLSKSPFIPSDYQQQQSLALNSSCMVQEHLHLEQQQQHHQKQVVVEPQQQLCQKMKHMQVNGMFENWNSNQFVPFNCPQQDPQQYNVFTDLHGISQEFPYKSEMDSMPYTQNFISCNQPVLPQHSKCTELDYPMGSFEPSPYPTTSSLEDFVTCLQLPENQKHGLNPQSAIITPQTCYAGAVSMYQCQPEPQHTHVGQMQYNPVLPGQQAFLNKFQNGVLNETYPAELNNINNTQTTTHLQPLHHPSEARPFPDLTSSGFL

[2] = target: T2, Aryl hydrocarbon receptor (Mus musculus, UniProt P30561); test: Displacement of 2-azido-3-[125I]7,8-dibromodibenzo-pdioxin from C57BL/6J mouse liver AhR incubated for 20 mins by gamma counting based autoradiography
T2 sequence (P30561 whole entry): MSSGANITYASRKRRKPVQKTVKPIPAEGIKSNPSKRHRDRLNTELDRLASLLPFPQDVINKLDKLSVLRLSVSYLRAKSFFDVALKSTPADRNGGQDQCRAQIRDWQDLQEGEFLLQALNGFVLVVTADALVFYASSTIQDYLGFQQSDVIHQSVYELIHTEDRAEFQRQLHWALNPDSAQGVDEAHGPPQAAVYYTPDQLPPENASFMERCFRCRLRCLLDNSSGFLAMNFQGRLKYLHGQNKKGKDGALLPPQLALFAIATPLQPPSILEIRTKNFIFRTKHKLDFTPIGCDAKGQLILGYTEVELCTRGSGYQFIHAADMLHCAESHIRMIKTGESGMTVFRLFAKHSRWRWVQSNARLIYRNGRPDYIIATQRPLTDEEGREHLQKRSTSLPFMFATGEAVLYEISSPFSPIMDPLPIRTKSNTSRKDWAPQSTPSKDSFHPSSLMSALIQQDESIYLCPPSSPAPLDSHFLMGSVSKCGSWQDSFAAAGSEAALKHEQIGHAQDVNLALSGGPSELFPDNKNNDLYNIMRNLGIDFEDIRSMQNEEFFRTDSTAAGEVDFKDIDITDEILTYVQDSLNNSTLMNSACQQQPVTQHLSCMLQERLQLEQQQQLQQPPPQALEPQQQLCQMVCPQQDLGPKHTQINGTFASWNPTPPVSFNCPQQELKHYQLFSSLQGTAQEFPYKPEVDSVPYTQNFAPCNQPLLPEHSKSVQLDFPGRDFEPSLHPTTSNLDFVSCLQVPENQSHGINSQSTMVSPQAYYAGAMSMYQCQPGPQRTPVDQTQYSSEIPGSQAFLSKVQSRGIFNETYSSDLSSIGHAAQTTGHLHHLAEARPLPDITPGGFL

[3] = target: T2, Aryl hydrocarbon receptor; test: Displacement of [3H]TCDD from mouse AhR
[4] = target: T2, Aryl hydrocarbon receptor; test: Displacement of 2-azido-3-[125I]7,8-dibromodibenzo-pdioxin from C57BL/6J mouse liver AhR
[5] = target: T2, Aryl hydrocarbon receptor; test: Displacement of 2-azido-3-[125I]7,8-dibromodibenzo-pdioxin from C57BL/6J mouse liver AhR relative to TCDD
[6] = target: T1, Aryl hydrocarbon receptor; test: Binding affinity to AhR (unknown origin)
[7] = target: T1, Aryl hydrocarbon receptor; test: Binding affinity to AhR (unknown origin) relative to TCDD
[8] = target: T1, Aryl hydrocarbon receptor; test: Inhibition of AhR (unknown origin)

Compound: O=c1c2cccc3cccc(c32)c2nc3ccc(Cl)cc3n12
IC50 [1]: 2.6 nM

Compound: O=c1cc(-c2ccccc2)oc2c1ccc1ccccc12 [ALPHA-NAPHTHOFLAVONE]
IC50 [2]: 25 nM

Compound: Cc1cc(Cl)cc2c1oc1cc(Cl)cc(Cl)c12
Kd [6]: 0.13 nM | EC50 [7]: 49 nM

Compound: Nc1ccccc1C(=O)C[C@H](N)C(=O)O [L-KYNURENINE]
Ki [8]: 21600 nM

Next, values leading:

IC50 [2]: 21 nM
Compound: COc1ccc(-c2cc(=O)c3ccc4ccccc4c3o2)cc1OC

Kd [3]: 3 nM
Compound: COC(=O)c1csc(C(=O)c2c[nH]c3ccccc23)n1

Kd [4]: 90 nM | EC50 [5]: 78000 nM
Compound: c1ccc2c(Cc3c[nH]c4ccccc34)c[nH]c2c1 [ARUNDINE]
